Test results taken from patent US20110105576A1 (priority 2008, published 2011).
Read-outs that look alike come from different tables or passages of the source.

What was measured:
[1] = system: Fusarium graminearum (ear rot of maize); format: cell-based; conditions: solo, 48 hrs
[2] = system: Fusarium graminearum (ear rot of maize); format: cell-based; conditions: solo, 48 hrs; remark: listed apart in the source

| SMILES | Observed control in % ([1]; 0.004 ppm (mg a.i./liter final medium)) [%] | Observed control in % ([1]; 0.008 ppm) [%] | Observed control in % ([1]; 0.016 ppm) [%] | Observed control in % ([1]; 0.031 ppm) [%] | Observed control in % ([1]; 0.063 ppm) [%] | Observed control in % ([1]; 0.125 ppm) [%] | Observed control in % ([1]; 0.25 ppm) [%] | Observed control in % ([1]; 0.5 ppm) [%] | Observed control in % ([1]; 1.0 ppm) [%] | Observed control in % ([1]; 2.0 ppm) [%] | Observed control in % ([2]; 0.008 ppm) [%] | Observed control in % ([2]; 0.25 ppm) [%] | Observed control in % ([2]; 0.5 ppm) [%] | Observed control in % ([2]; 2.0 ppm) [%] |
| --- | --- | --- | --- | --- | --- | --- | --- | --- | --- | --- | --- | --- | --- | --- |
| CCCN(CCOc1c(Cl)cc(Cl)cc1Cl)C(=O)n1ccnc1 [A, prochloraz] | 0 | 3 | 6 | 11 | 25 | 86 | 94 | 96 | 96 | 96 |  |  |  |  |
| CC1(C)CCC(Cc2ccc(Cl)cc2)C1(O)Cn1cncn1 (stereo not drawn) [B, metconazole] |  | 3 |  |  |  |  | 93 | 95 |  | 96 | 3 | 93 | 95 | 96 |
